Test results as given in ChEMBL document CHEMBL1144334, “Synthesis and structure-activity relationships of isoxazole carboxamides as growth hormone secretagogue receptor antagonists” (Bioorg Med Chem Lett, 2005).

species on record: Rattus norvegicus; assay: Rate of metabolism measured in rat liver microsomes for 30 min

In the case of `CCN(CC)c1ccc(NC(=O)c2c(-c3c(Cl)cccc3Cl)noc2C)cc1`, the Rate of metabolism is reported as 800 pM/mg/min.

molecular target: T1, Growth hormone secretagogue receptor type 1 (Homo sapiens, UniProt Q92847); assay: Inhibition of binding to human growth hormone secretagogue receptor
T1 sequence (Q92847 whole entry): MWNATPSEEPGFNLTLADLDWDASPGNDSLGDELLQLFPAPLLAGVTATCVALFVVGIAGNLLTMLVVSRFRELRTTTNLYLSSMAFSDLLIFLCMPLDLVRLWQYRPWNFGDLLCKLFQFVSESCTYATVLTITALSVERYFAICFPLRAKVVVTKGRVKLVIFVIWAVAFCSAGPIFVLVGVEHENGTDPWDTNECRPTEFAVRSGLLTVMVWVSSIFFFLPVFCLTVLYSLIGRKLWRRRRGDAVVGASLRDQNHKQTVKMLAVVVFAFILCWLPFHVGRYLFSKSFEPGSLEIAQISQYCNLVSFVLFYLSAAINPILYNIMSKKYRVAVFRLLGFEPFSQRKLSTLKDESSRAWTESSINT

Point of comparison: `Cc1onc(-c2c(Cl)cccc2Cl)c1C(=O)Nc1ccccc1C(=O)NCc1ccccc1`, IC50 1.2 µM. Against it:
- CCN(CCO)c1ccc(NC(=O)c2c(-c3c(Cl)cccc3Cl)noc2C)cc1 — 7.7-fold higher, 9.2 µM
- Cc1onc(-c2c(Cl)cccc2Cl)c1C(=O)Nc1ccc(N2CCCCC2)cc1 — higher, > 10 µM
- Cc1onc(-c2c(Cl)cccc2Cl)c1C(=O)Nc1ccccc1C(=O)N1CCCCCC1 — within 1.5-fold, 0.86 µM
- Cc1onc(-c2c(Cl)cccc2Cl)c1C(=O)Nc1ccccc1C(=O)NCc1ccc2c(c1)OCO2 — 3.4-fold lower, 0.35 µM
- Cc1onc(-c2c(Cl)cccc2Cl)c1C(=O)Nc1ccccc1C(=O)N1CCCCC1 — 1.8-fold higher, 2.2 µM
- CCN(CC)c1ccc(NC(=O)c2c(-c3c(Cl)cccc3Cl)noc2C)c(C)c1 — 32-fold lower, 0.037 µM
- CCN(CC)c1ccc(NC(=O)c2c(-c3ccccc3-c3ccccc3)noc2C)cc1 — within 1.5-fold, 1.3 µM
- CCN(CC)c1ccc(NC(=O)c2c(-c3ccccc3Br)noc2C)cc1 — 3.5-fold lower, 0.34 µM
- CCN(CC)c1ccc(NC(=O)c2c(-c3cccc(Cl)c3)noc2C)cc1 — 15-fold higher, 18.5 µM
- CCN(CC)c1ccc(NC(=O)c2c(-c3ccccc3Cl)noc2C)cc1 — 1.7-fold lower, 0.69 µM
- Cc1onc(-c2c(Cl)cccc2Cl)c1C(=O)Nc1ccccc1CC1c2ccccc2CCN1C (centres undefined) — within 1.5-fold, 0.98 µM
- O=C(Nc1ccccc1C(=O)N1CCCCC1)c1c(-c2c(Cl)cccc2Cl)noc1CCC1OCCCO1 — 6.2-fold higher, 7.5 µM
- CCC(CC)c1ccc(NC(=O)c2c(-c3c(Cl)cccc3Cl)noc2C)cc1 — higher, > 10 µM
- CCNc1ccc(NC(=O)c2c(-c3c(Cl)cccc3Cl)noc2C)cc1 — higher, > 10 µM
- CCN(CC)c1ccc(NC(=O)c2c(-c3ccccc3)noc2C)cc1 — 6.8-fold higher, 8.2 µM
- CCN(CC)c1ccc(NC(=O)c2c(-c3ccccc3[N+](=O)[O-])noc2C)cc1 — 2.2-fold lower, 0.55 µM
- CCN(CC)c1ccc(NC(=O)c2c(-c3c(Cl)cccc3Cl)noc2C)cc1C — not separable, > 0.1 µM
- CCN(CC)C(=O)c1ccccc1NC(=O)c1c(-c2c(Cl)cccc2Cl)noc1C — 1.6-fold higher, 1.9 µM
- CCN(CC)c1ccc(NC(=O)c2c(-c3c(Cl)cccc3Cl)noc2CCC2OCCCO2)c(C)c1 — 130-fold lower, 0.009 µM
- CCc1cc(N(CC)CC)ccc1NC(=O)c1c(-c2c(Cl)cccc2Cl)noc1C — 3.2-fold lower, 0.37 µM
- CCN(CC)Cc1ccc(NC(=O)c2c(-c3c(Cl)cccc3Cl)noc2C)cc1 — higher, > 10 µM
- CCN(CC)c1ccc(NC(=O)c2c(-c3c(Cl)cccc3Cl)noc2C)c(C(F)(F)F)c1 — 3.4-fold higher, 4.1 µM
- CCN(CC)c1ccc(NC(=O)c2c(-c3ccccc3OC)noc2C)cc1 — 3.3-fold higher, 4 µM
- CCN(CC)c1ccc(NC(=O)c2c(-c3c(Cl)cccc3Cl)noc2C)c(C#N)c1 — 7.5-fold higher, 9 µM
- CCN(CC)c1ccc(NC(=O)c2c(-c3ccc(Cl)cc3)noc2C)cc1 — 5.9-fold higher, 7.1 µM
- CCCN(CC)c1ccc(NC(=O)c2c(-c3c(Cl)cccc3Cl)noc2C)cc1 — 2.9-fold lower, 0.41 µM
- CCN(C)c1ccc(NC(=O)c2c(-c3c(Cl)cccc3Cl)noc2C)cc1 — 4.6-fold higher, 5.5 µM
- CCN(C(C)=O)c1ccc(NC(=O)c2c(-c3c(Cl)cccc3Cl)noc2C)cc1 — higher, > 10 µM
- CCN(CC)c1ccc(NC(=O)c2c(-c3c(Cl)cccc3Cl)noc2C)c(OC)c1 — 2-fold lower, 0.6 µM
- CCN(CC)c1ccc(NC(=O)c2c(-c3c(Cl)cccc3Cl)noc2C)cc1Cl — higher, > 10 µM

molecular target: T1, Growth hormone secretagogue receptor type 1; assay: Inhibition of ghrelin-induced increase of intracellular [Ca2+] in CHO K cell FLIPR assay; assay type: functional, cell-based

Point of comparison: `Cc1onc(-c2c(Cl)cccc2Cl)c1C(=O)Nc1ccccc1C(=O)NCc1ccc2c(c1)OCO2`, IC50 4.9 µM. Against it:
- CCN(CCO)c1ccc(NC(=O)c2c(-c3c(Cl)cccc3Cl)noc2C)cc1 — 1.6-fold lower, 3.1 µM
- Cc1onc(-c2c(Cl)cccc2Cl)c1C(=O)Nc1ccccc1C(=O)N1CCCCCC1 — 9.6-fold lower, 0.51 µM
- Cc1onc(-c2c(Cl)cccc2Cl)c1C(=O)Nc1ccccc1C(=O)N1CCCCC1 — 2.1-fold lower, 2.3 µM
- CCN(CC)c1ccc(NC(=O)c2c(-c3c(Cl)cccc3Cl)noc2C)c(C)c1 — 130-fold lower, 0.039 µM
- CCN(CC)c1ccc(NC(=O)c2c(-c3ccccc3-c3ccccc3)noc2C)cc1 — within 1.5-fold, 6.3 µM
- CCN(CC)c1ccc(NC(=O)c2c(-c3ccccc3Br)noc2C)cc1 — 18-fold lower, 0.28 µM
- CCN(CC)c1ccc(NC(=O)c2c(-c3ccccc3Cl)noc2C)cc1 — 20-fold lower, 0.25 µM
- Cc1onc(-c2c(Cl)cccc2Cl)c1C(=O)Nc1ccccc1CC1c2ccccc2CCN1C (centres undefined) — 2.9-fold lower, 1.7 µM
- O=C(Nc1ccccc1C(=O)N1CCCCC1)c1c(-c2c(Cl)cccc2Cl)noc1CCC1OCCCO1 — 1.5-fold higher, 7.4 µM
- Cc1onc(-c2c(Cl)cccc2Cl)c1C(=O)Nc1ccccc1C(=O)NCc1ccccc1 — 2.1-fold higher, 10.5 µM
- CCN(CC)c1ccc(NC(=O)c2c(-c3c(Cl)cccc3Cl)noc2CCC2OCCCO2)cc1 — 350-fold lower, 0.014 µM
- CCN(CC)c1ccc(NC(=O)c2c(-c3ccccc3)noc2C)cc1 — 1.6-fold higher, 7.6 µM
- CCN(CC)c1ccc(NC(=O)c2c(-c3ccccc3[N+](=O)[O-])noc2C)cc1 — 7.9-fold lower, 0.62 µM
- CCN(CC)c1ccc(NC(=O)c2c(-c3c(Cl)cccc3Cl)noc2C)cc1C — higher, > 10 µM
- CCN(CC)C(=O)c1ccccc1NC(=O)c1c(-c2c(Cl)cccc2Cl)noc1C — 2-fold lower, 2.5 µM
- CCN(CC)c1ccc(NC(=O)c2c(-c3c(Cl)cccc3Cl)noc2CCC2OCCCO2)c(C)c1 — 490-fold lower, 0.01 µM
- CCc1cc(N(CC)CC)ccc1NC(=O)c1c(-c2c(Cl)cccc2Cl)noc1C — 120-fold lower, 0.041 µM
- CCN(CC)c1ccc(NC(=O)c2c(-c3c(Cl)cccc3Cl)noc2C)c(C(F)(F)F)c1 — higher, > 10 µM
- CCN(CC)c1ccc(NC(=O)c2c(-c3ccccc3OC)noc2C)cc1 — within 1.5-fold, 6.8 µM
- CCN(CC)c1ccc(NC(=O)c2c(-c3c(Cl)cccc3Cl)noc2C)c(C#N)c1 — within 1.5-fold, 4.5 µM
- CCN(CC)c1ccc(NC(=O)c2c(-c3ccc(Cl)cc3)noc2C)cc1 — within 1.5-fold, 6 µM
- CCCN(CC)c1ccc(NC(=O)c2c(-c3c(Cl)cccc3Cl)noc2C)cc1 — 9.6-fold lower, 0.51 µM
- CCN(C)c1ccc(NC(=O)c2c(-c3c(Cl)cccc3Cl)noc2C)cc1 — within 1.5-fold, 4.7 µM
- CCN(CC)c1ccc(NC(=O)c2c(-c3c(Cl)cccc3Cl)noc2C)c(OC)c1 — 1.7-fold lower, 2.9 µM

system: Rattus norvegicus; assay: Oral bioavailability in rat; assay type: functional, organism-based

Point of comparison: `CCN(CC)c1ccc(NC(=O)c2c(-c3c(Cl)cccc3Cl)noc2C)cc1`, bioavailability 4%. Against it:
- CCN(CC)c1ccc(NC(=O)c2c(-c3c(Cl)cccc3Cl)noc2C)c(C)c1 — lower, 1%
